We go through 4 compounds from patent publication US20260014203A1, “USE OF COMPOSITION INCLUDING MESENCHYMAL STEM CELLS FOR ALLEVIATING MYELOFIBROSIS” (MEDICAL AND PHARMACEUTICAL INDUSTRY TECHNOLOGY AND …, priority 2022, published 2026).

One test deals with IDO gene in UCMSCs. In words: Priming of UCMSCs with IFN-γ in combination with a supplement, IDO gene mRNA by real-time PCR. Conditions: 250 U/mL of IFN-γ in combination with the supplement, 72 hours; compared with comparative group (IFN-γ only). The class given is cell-based, human. The procedure: In order to determine whether addition of a supplement, which is selected from one of vitamin, steroid, cytokine, double-stranded RNA, and histone deacetylase (HDAC) inhibitor, enhanced the effect of IFN-γ in the priming of UCMSCs, the following experiments were conducted.
In brief, UCMSCs culture as described in Item 2 of the General Experimental Materials were divided into 8 groups, namely, a normal control group (NCG), a comparative group (CG) and 6 experimental groups, i.e., experimental group 1 to experimental group 6 (EG1 to EG6), with the number of UCMSCs in each group being 5.8×10^5 cells. Next, the UCMSCs in each group were subjected to priming, in which the UCMSCs in the CG were treated with 250 U/mL of IFN-γ for 72 hours, the UCMSCs in a respective one of the EG1 to EG6 were treated with 250 U/mL of IFN-γ in combination with 1 μM of retinoic acid, 1 μg/mL of dexamethasone, 10 ng/mL of TNF-α, 25 μg/mL of polyinosinic acid-polycytidylic acid, 0.5 mM of valproic acid, and 1 μM of budesonide, respectively, for 72 hours, while the UCMSCs in the NCG were not subjected to any treatment and were left to stand for 72 hours.

In test [1] the test system is indoleamine-pyrrole 2,3-dioxygenase (IDO)-expressing UCMSCs. The experiment in a line: Priming of UCMSCs with IFN-γ, percentage of IDO-expressing UCMSCs by flow cytometry. In kind it is cell-based, human. The procedure:
UCMSCs culture as described in Item 2 of the General Experimental Materials were divided into 6 groups, namely, a control group (CG), and 5 experimental groups, i.e., experimental group 1 to 5 (EG1 to EG5), with the number of UCMSCs in each group being 5.8×10^5 cells. Next, the UCMSCs in the EG1 to EG5 were subjected to priming by treating with different concentrations of IFN-γ, i.e., 50, 100, 200, 250 and 500 U/mL of IFN-γ, respectively, for 72 hours, while the UCMSCs in the CG were not subjected to any treatment. For identification of IDO-expressing UCMSCs, the cells in each group were stained with phycoerythrin-conjugated IDO monoclonal antibody (Manufacturer: Thermo Fisher Scientific; Catalogue no.: 12-9477-42) while phycoerythrin-conjugated mouse IgG1 kappa isotype control (Manufacturer: Thermo Fisher Scientific; Catalogue no.: 12-4714-82) served as the control antibody, followed by subjecting the stained cells to flow cytometry conducted using CytoFLEX Flow Cytometer (Beckman Coulter), so as to determine the percentage of IDO-expressing UCMSCs in each group.
In brief, the UCMSCs culture as described in Item 2 of the General Experimental Materials were divided into 9 groups, namely, three control groups, i.e., control groups 1 to 3 (CG1 to CG3), and 6 experimental groups, i.e., experimental group 1-1 (EG1-1), experimental group 1-2 (EG1-2), experimental group 2-1 (EG2-1), experimental group 2-2 (EG2-2), experimental group 3-1 (EG3-1) and experimental group 3-2 (EG3-2), with the number of UCMSCs in each group being 5.8×10^5 cells. Next, the UCMSCs in the EG1-1, EG2-1, and EG3-1 were subjected to priming by treating with 250 U/mL of IFN-γ for 24 hours, 48 hours, and 72 hours, respectively, the UCMSCs in EG1-2, EG2-2, and EG3-2 were treated with 500 U/mL of IFN-γ for 24 hours, 48 hours, and 72 hours, respectively, while the UCMSCs in the CG1, CG2 and CG3 were not subjected to any treatment and were left to stand for 24 hours, 48 hours, and 72 hours, respectively. […]
Background: Flow cytometry measures light scatter and fluorescence of single cells or particles in a stream.

Consider TNF-α, for which the “relative mRNA expression level of IDO gene” value in the test with IDO gene in UCMSCs was “higher”.
Consider polyinosinic acid-polycytidylic acid, for which the “relative mRNA expression level of IDO gene” value in the test on IDO gene in UCMSCs is recorded as “higher”.
“IFN-γ: cytokine used for priming of UCMSCs”: the “percentage of IDO-expressing UCMSCs” value was “higher” in test [1] (50, 100, 200, 250 and 500 U/mL of IFN-γ, 72 hours, compared with control group, concentration dependent); “higher” in test [1] (250 or 500 U/mL of IFN-γ for 24, 48 or 72 hours, compared with the untreated control group of the same time); “higher” in test [1] (250 or 500 U/mL of IFN-γ, 72 hours compared with 48 hours and 24 hours).
For `CCCC(CCC)C(=O)O` [valproic acid], in the test on IDO gene in UCMSCs, the “relative mRNA expression level of IDO gene” value is given as “higher”.
